Laboratory results as given in US20260335282A1, “NOVEL 3-ARYLIDENE-2-INDOLINONE DERIVATIVES FOR THERAPEUTIC USE” (ISTANBUL UNIVERSITESI REKTORLUGU, priority 2022, published 2026).

Assays:
Assay type in all cases: cell-based, human
A498 cells = experiment: MTT cytotoxicity, kidney cancer cells A498; details: MTT
Text: (§1) The cytotoxicity, general tyrosine kinase inhibitory effects and cell death (apoptosis/necrosis) assays of 1-benzyl-3-(1H-indol-3-ylmethylidene)-1,3-dihydro-2H-indol-2-one derivatives (Formula 5) of the present invention are studied by the following methods. […] HUVEC (human umbilical vein endothelial cell), MCF-10F (human breast epithelial cell) and Beas2b (human lung bronchial epithelial cell) cell lines have been used as healthy control cells in MTT experiments.
(§2) Beas2b (human lung bronchiole epithelial cell) and HEK293 (renal tubule epithelium) cells used as normal cell lines were cultured in RPMI medium, and HUVEC (human umbilical cord endothelial cells) and MCF-10F (human breast epithelial cell) cells are cultured in DMEM medium containing 100 µg/ml penicillin/streptomycin. The cells, which covered 70% of the culture flask, are washed with phosphate buffer and then removed from the surface of the flask by application of trypsin-ethylenediamine tetraacetic acid (Trypsin-EDTA; 0.25%) solution, passaged, counted and seeded on appropriate plates before each experiment. Cells are treated with a total of 45 2-indolinone compounds (5) at concentrations of 0.1, 1, 5 and 10 μM. Stock compounds are prepared in 1 ml dimethylsulfoxide (DMSO) and 4 different dilutions were prepared with medium and performed to the cells. Control group cells are treated with DMSO at a similar concentration to the experimental groups.
(§3) MTT (3-(4,5-dimethylthiazol-2-yl)-2,5-diphenyl-2H-tetrazolium bromide) colorimetric assay provides quantitation of viable cells with ongoing mitochondrial activity in culture medium. According to the standard procedure in cell culture conditions, cells are maintained in RPMI-1640 and DMEM culture media containing 10% FBS and 1% penicillin/streptomycin. The trypan blue test is used for cell counts.
(§4) The effects of 45 2-indolinone compounds (5) on cell viability in all cancer cell lines are investigated by MTT assay. Cells are seeded in a 96-well flat bottom plate with 5000 cells in each well and 2-indolinone compounds (5) at concentrations of 0.1, 1, 5 and 10 μM are performed to the cells the next day. After 48 and/or 72 hours following treatment with 2-indolinone compounds, 50 μl of the supernatant is slowly discarded (as it was acid medium) and MTT at a concentration of 5 mg/ml is added to each well in a volume of 10 μl. After incubation for 4 hours, the formazan crystals formed in the wells are dissolved by adding 100 μl DMSO and the optical density is read at 570 nm test wavelength and 630 nm reference wavelength. Cell viability is expressed as % cell viability by comparing the absorbance of control and test wells. IC50 value is calculated from the dose-response curves prepared for each compound. In addition, the possible DMSO effect is eliminated by preparing negative control wells compatible with the amount of DMSO contained in the compounds. To understand the reaction of the compounds with MTT, cell-free (MTT+compounds) negative controls are prepared at the concentrations used (Mosmann, 1983). […] The absorbance values obtained are compared to the control and statistically evaluated by unpaired t-test using “Graphpad Prism 5.04” software. “P<0.05” is accepted as significant. When evaluating cytotoxic effects, the present inventors aim for the inventive compounds to be effective in cancer cells and ineffective in healthy cells. The inventive compounds have also been compared with sunitinib, one of the reference chemotherapy drugs currently used in treatment.
(§5) Among the compounds of the present invention, those that killed cancer cells by at least 50% (p<0.05) are selected and tested whether a 10-fold concentration of the M concentration at the IC50 value is toxic to normal healthy cells.

MIAPaCa-2 cells = experiment: MTT cytotoxicity, pancreas cancer cells MIAPaCa-2; details: MTT
Text: as §1, §2, §3, §4

MDA-MB-231 cells = experiment: MTT cytotoxicity, breast cancer cells MDA-MB-231; details: read-out: IC50, MDA-MB-231 (breast); MTT, no * mark (incubation time not given)
Text: as §1, §2, §3, §4, §5

MCF-10F/Beas2b cells = experiment: MTT cytotoxicity, healthy cells MCF-10F/Beas2b; details: for IC50: MTT
Text: as §1, §2, §3, §4, §5

MCF-7 cells = experiment: MTT cytotoxicity, breast cancer cells MCF-7; details: MTT, no * mark (incubation time not specified)
Text: as §1, §2, §3, §4, §5

HT-29 cells = experiment: MTT cytotoxicity, colon cancer cells HT-29; details: MTT, no * mark (incubation time not specified)
Text: as §1, §2, §3, §4

HUVEC cells = experiment: MTT cytotoxicity, healthy cells HUVEC; details: for IC50: MTT
Text: as §1, §2, §3, §4, §5

CAKI-1 cells = experiment: MTT cytotoxicity, kidney cancer cells CAKI-1
Text: as §1, §2, §3, §4, §5

A549 cells = experiment: MTT cytotoxicity, lung cancer cells A549; details: no * mark (incubation time not specified)
Text: as §1, §2, §3, §4, §5

HCT-116 cells = experiment: MTT cytotoxicity, colon cancer cells HCT-116; details: no * mark (incubation time not specified)
Text: as §1, §2, §3, §4

[1] = no * mark (incubation time not specified)
[2] = *: effective 72 hours after incubation

Compound | IC50 (A498 cells; [1]) [µM] | IC50 (MIAPaCa-2 cells; [1]) [µM] | IC50 (MDA-MB-231 cells) [µM] | IC50 (MCF-10F/Beas2b cells; [1]) [µM] | IC50 (MCF-7 cells) [µM] | IC50 (HT-29 cells) [µM] | IC50 (HUVEC cells; [1]) [µM] | IC50 (CAKI-1 cells; [1]) [µM] | IC50 (A549 cells) [µM] | IC50 (HCT-116 cells) [µM] | IC50 (MIAPaCa-2 cells; [2]) [µM] | IC50 (CAKI-1 cells; [2]) [µM] | IC50 (A498 cells; [2]) [µM] | Selectivite Index (SI), MCF-10F/Beas2b (Table 1) (MCF-10F/Beas2b cells; MCF-10F/Beas2b vs breast or kidney cancer cells, cancer line not given) | IC50 (MCF-10F/Beas2b cells; [2]) [µM] | Selectivite Index (SI), HUVEC (Table 1) (HUVEC cells; HUVEC vs breast or kidney cancer cells, cancer line not given) | IC50 (HUVEC cells; [2]) [µM]
O=C1/C(=C\c2c[nH]c3ccccc23)c2cc(Cl)ccc2N1Cc1ccc(Cl)cc1 [19C] | 0.51 | > 10 | > 10 | 1.87 | 3.16 | > 10 | 1.87 | > 10 | 5.55 | > 10 | – | – | – | – | – | – | –
O=C1/C(=C\c2c[nH]c3ccccc23)c2cccc(Cl)c2N1Cc1cccc(F)c1 [23C] | 8.33 | – | > 10 | – | 3.07 | > 10 | > 10 | 4.88 | > 10 | > 10 | > 10 | – | – | – | – | – | –
O=C1/C(=C\c2c[nH]c3ccccc23)c2cccc(Cl)c2N1Cc1ccc(F)cc1 [24C] | 2.6 | 1.12 | 7.41 | 1.26 | 5.08 | 0.73 | 1.26 | – | 8.08 | 2.35 | – | 5.72 | – | – | – | – | –
O=C1/C(=C\c2c[nH]c3ccccc23)c2cccc(Cl)c2N1Cc1cccc(Cl)c1 [25C] | 2.91 | – | > 10 | 1.81 | 4.5 | > 10 | 1.81 | – | > 10 | 2.9 | 3.23 | 8.07 | – | – | – | – | –
O=C1/C(=C\c2c[nH]c3ccccc23)c2cccc(Cl)c2N1Cc1ccc(Cl)cc1 [26C] | 6.92 | – | > 10 | – | 3.55 | > 10 | > 10 | 4.5 | > 10 | > 10 | > 10 | – | – | – | – | – | –
Cc1ccc(CN2C(=O)/C(=C\c3c[nH]c4ccccc34)c3cccc(Cl)c32)cc1 [28C] | – | > 10 | > 10 | – | > 10 | > 10 | > 10 | – | > 10 | > 10 | – | 7.66 | 0.6 | 1.5 | 1.78 | > 15.6 | –
O=C1/C(=C\c2c[nH]c3ccccc23)c2cccc(F)c2N1Cc1ccccc1 [29C] | > 10 | > 10 | > 10 | – | 4.35 | > 10 | – | 4.12 | > 10 | > 10 | – | – | – | – | – | – | 0.95
O=C1/C(=C\c2c[nH]c3ccccc23)c2cccc(F)c2N1Cc1cccc(F)c1 [30C] | 6.57 | 1.9 | 4.21 | 1.9 | 4.31 | > 10 | – | – | 6.8 | 2.06 | – | 7.7 | – | – | – | – | 0.94
Cn1cc(/C=C2\C(=O)N(Cc3ccccc3)c3ccccc32)c2ccccc21 [Y12] | > 10 | > 10 | > 10 | – | > 10 | > 10 | > 10 | > 10 | > 10 | 1.46 | – | – | – | – | – | – | –
Cc1ccc2c(c1)/C(=C/c1cn(C)c3ccccc13)C(=O)N2Cc1ccccc1 [Y13] | > 10 | 2.2 | > 10 | – | > 10 | 3.37 | 3.37 | > 10 | > 10 | 4.58 | – | – | – | – | – | – | –
